The source of these data is patent publication US8580309B2, “Antimicrobial mixtures” (priority 2006, dated 2013).

In experiment [1] the test system is Staphylococcus aureus NCTC 6571. Briefly: Lethal photosensitisation of S. aureus by gold nanoparticle-photosensitiser mixtures under white light, viable counting. The experiment is classed as cell-based. Particulars: preliminary experiments, 30 minutes light exposure. On the procedure:
Gold nanoparticles (2.0 nm diameter; British Biocell International) in water (15×10^13 particles per ml) were mixed with an equal volume of an aqueous solution of toluidine blue O (40 μM) and left at room temperature for 15 minutes. 100 μl of the gold-TB solution was added to 100 μl of a suspension of Staphylococcus aureus NCTC 6571 in phosphate buffered saline (PBS) and this was irradiated with white light from a fluorescent white lamp for 10 minutes. Controls consisted of:
(i) TB (final concentration=10 μM) and bacteria, irradiated for the same period of time,
(ii) nanogold (diluted 1:1 with water) and bacteria, irradiated for the same period of time,
(iii) bacteria without TB or nanogold, not irradiated (“control”).
After irradiation, the number of surviving bacteria was determined by viable counting. […] Note that the TB concentration and light energy dose used were designed to give sub-optimal kills so that differences in efficacy of the TB and the TB-nanogold could be discerned. Preliminary experiments using 30 minutes light exposure achieved total kills of the bacterial suspensions in both cases.
Gold nanoparticles of approximately 15 nm in diameter (batches NN1 and NN2 above) were mixed with an equal volume of aqueous toluidine blue O (TB) and left at room temperature for 15 minutes. TB was used at a final concentration of 1, 5, 10, 20 or 50 μM. […]

Experiment [2] has the same test system. Description: Lethal photosensitisation of S. aureus by TBO-tiopronin-gold nanoparticle conjugate, white light, viable counting. It counts as cell-based. Particulars: irradiated with white light for any length of time (15, 30, 45 minutes).

Molecules are shown by their SMILES.

Take `Cc1cc2nc3ccc(N(C)C)cc3[s+]c2cc1N.[Cl-]` [TB only, toluidine blue O]: the “kill of the bacterial suspensions (in words)” value in experiment [1] was “total kills”. Besides, the “antibacterial effect (in words)” value in experiment [2] is on record as “no effect”.
